Structures are written as SMILES. Counter-ions that a name gives are not always drawn.

One may read the IC50 as the concentration that gives 50% inhibition.

For the test, the target named is T1, human SPNS2 (Homo sapiens, UniProt Q8IVW8).
T1 construct: expressed in transfected cells; host or cells: Saccharomyces cerevisiae strain with forced expression of a mammalian SphK and human SPNS2
T1 sequence (Q8IVW8 1-549): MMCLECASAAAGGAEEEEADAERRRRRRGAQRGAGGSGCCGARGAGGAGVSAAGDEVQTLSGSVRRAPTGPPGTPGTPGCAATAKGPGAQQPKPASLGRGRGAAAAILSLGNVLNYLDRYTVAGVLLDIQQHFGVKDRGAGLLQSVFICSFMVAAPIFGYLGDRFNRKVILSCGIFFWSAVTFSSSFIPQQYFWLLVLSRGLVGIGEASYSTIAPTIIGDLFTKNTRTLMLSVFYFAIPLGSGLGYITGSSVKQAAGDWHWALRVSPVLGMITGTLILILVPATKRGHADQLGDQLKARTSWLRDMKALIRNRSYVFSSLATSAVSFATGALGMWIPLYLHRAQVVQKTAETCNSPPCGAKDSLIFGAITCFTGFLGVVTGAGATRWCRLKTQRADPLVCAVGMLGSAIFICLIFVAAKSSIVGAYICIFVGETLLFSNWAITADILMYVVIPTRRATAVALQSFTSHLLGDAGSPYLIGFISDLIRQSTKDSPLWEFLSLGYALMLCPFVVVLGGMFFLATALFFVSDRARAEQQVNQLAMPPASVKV
Briefly: S1P transporter assay: growth of S. cerevisiae strain with forced expression of a mammalian SphK and human SPNS2. The format is cell-based. The following applies: in vitro inhibition of SPNS2; growth of S. cerevisiae strain expressing mammalian SphK and human SPNS2; compounds as their pharmaceutical salts. The source says: Transporter assays are vectorial and, therefore, require measurement of the transported analyte in different compartments. The assay of S1P transporters is problematic because S1P is exported, but not imported, by SPNS2, which obviates measuring uptake of mass- or radio-labeled S1P into transporter-expressing cells.
To assay for SPNS2 inhibitor hits, we took advantage of the growth inhibitory effects of excessive levels of phosphorylated Long Chain Base (phospho-LCB) levels on the budding yeast, S. cerevisiae (Kharel Y, et al. Saccharomyces cerevisiae as a platform for assessing sphingolipid lipid kinase inhibitors. PLoS One 13, e0192179 (2018) PMC5908134). Yeast lack the desaturase that converts dihydroceramide to ceramide and, therefore, have neither sphingosine nor S1P. Rather, yeast have the reduced form, dihydrosphingosine, and the 4-hydroxyl analog, phytosphingosine and their respective phosphates. Like all eukaryotes, the yeast synthesizes (via LCB kinases (SphKs)) and degrades (via phospho-LCB lyase and phosphatase) phospho-LCBs, (dhS1P, phytoS1P). Yeast lack phospho-LCB transporters such as SPNS2, which are found only in vertebrates. To assess inhibition of SPNS2 in vitro, we used a strain of S. cerevisiae wherein expression of a mammalian SphK and human SPNS2 were forced. SPNS2 inhibitors decrease the growth of this strain. Table 2 below presents in vitro inhibition data against SPNS2 for exemplary compounds, presented here as their pharmaceutical salts, of the disclosure (A≤2 μM, B>2 μM).
As to `Clc1ccccc1Nc1ccc(-c2noc([C@@H]3CCNC3)n2)cn1` [Compound 13e, (R)—N-(2-chlorophenyl)-5-(5-(pyrrolidin-3-yl)-1,2,4-oxadiazol-3-yl)pyridin-2-amine hydrochloride], the IC50 was over 2000 nM. With `Brc1ccc(Br)c(Nc2ccc(-c3noc([C@@H]4CCNC4)n3)cn2)c1` [Compound 13f, (R)—N-(2,5-dibromophenyl)-5-(5-(pyrrolidin-3-yl)-1,2,4-oxadiazol-3-yl)pyridin-2-amine hydrochloride] the figure was over 2000 nM. With `CC(C)(C)c1cccc(Nc2ccc(-c3noc([C@@H]4CCNC4)n3)cn2)c1` [Compound 13g, (R)—N-(3-(tert-butyl)phenyl)-5-(5-(pyrrolidin-3-yl)-1,2,4-oxadiazol-3-yl)pyridin-2-amine hydrochloride] the figure was over 2000 nM. As for `CCCCCCCCCCc1ccc(Nc2ccc(-c3noc([C@@H]4CCNC4)n3)cn2)cc1` [Compound 13h, (R)—N-(4-decylphenyl)-5-(5-(pyrrolidin-3-yl)-1,2,4-oxadiazol-3-yl)pyridin-2-amine hydrochloride], the IC50 is over 2000 nM. With `CCCCc1ccc(Nc2ccc(-c3noc([C@@H]4CCNC4)n3)cn2)cc1` [Compound 13i, (R)—N-(4-butylphenyl)-5-(5-(pyrrolidin-3-yl)-1,2,4-oxadiazol-3-yl)pyridin-2-amine hydrochloride] the figure was over 2000 nM; with `c1ccc(CCCOc2ccc(-c3noc(C4CNC4)n3)cc2)cc1` [Compound 13j, 5-(azetidin-3-yl)-3-(4-(3-phenylpropoxy)phenyl)-1,2,4-oxadiazole hydrochloride], over 2000 nM. Take `N=C(N)N1CC[C@@H](c2nc(-c3ccc(N4CCCCC4)nc3)no2)C1` [Compound 15a, (R)-3-(3-(6-(piperidin-1-yl)pyridin-3-yl)-1,2,4-oxadiazol-5-yl)pyrrolidine-1-carboximidamide hydrochloride]: the IC50 is over 2000 nM. As to `CCCCCCCCNc1ccc(-c2noc([C@@H]3CCN(C(=N)N)C3)n2)cn1` [Compound 15b, (R)-3-(3-(6-(octylamino)pyridin-3-yl)-1,2,4-oxadiazol-5-yl)pyrrolidine-1-carboximidamide hydrochloride], the IC50 was over 2000 nM.

With `N=C(N)N1CCC[C@@H](c2nc(-c3ccc(Nc4ccc(OC(F)(F)F)c(F)c4)nc3)no2)C1` [Compound 15c, (R)-3-(3-(6-((3-fluoro-4-(trifluoromethoxy)phenyl)amino)pyridin-3-yl)-1,2,4-oxadiazol-5-yl)piperidine-1-carboximidamide hydrochloride], the IC50 was over 2000 nM. `N=C(N)N1CC[C@@H](c2nc(-c3ccc(N4CCOCC4)nc3)no2)C1` [Compound 15d, (R)-3-(3-(6-morpholinopyridin-3-yl)-1,2,4-oxadiazol-5-yl)pyrrolidine-1-carboximidamide hydrochloride]: the IC50 was over 2000 nM.

Turning to `N=C(N)N1CC[C@@H](c2nc(-c3ccc(Nc4ccccc4Cl)nc3)no2)C1` [Compound 15e, (R)-3-(3-(6-((2-chlorophenyl)amino)pyridin-3-yl)-1,2,4-oxadiazol-5-yl)pyrrolidine-1-carboximidamide hydrochloride], the half-maximal inhibitory concentration (IC50) is over 2000 nM.

Take `N=C(N)N1CC[C@@H](c2nc(-c3ccc(Nc4cc(Br)ccc4Br)nc3)no2)C1` [Compound 15f, (R)-3-(3-(6-((2,5-dibromophenyl)amino)pyridin-3-yl)-1,2,4-oxadiazol-5-yl)pyrrolidine-1-carboximidamide hydrochloride]: the IC50 is over 2000 nM.

With `CC(C)(C)c1cccc(Nc2ccc(-c3noc([C@@H]4CCN(C(=N)N)C4)n3)cn2)c1` [Compound 15g, (R)-3-(3-(6-((3-(tert-butyl)phenyl)amino)pyridin-3-yl)-1,2,4-oxadiazol-5-yl)pyrrolidine-1-carboximidamide hydrochloride], the IC50 was over 2000 nM. On to `CCCCCCCCCCc1ccc(Nc2ccc(-c3noc([C@@H]4CCN(C(=N)N)C4)n3)cn2)cc1` [Compound 15h, (R)-3-(3-(6-((4-decylphenyl)amino)pyridin-3-yl)-1,2,4-oxadiazol-5-yl)pyrrolidine-1-carboximidamide hydrochloride], for which the IC50 is at most 2000 nM.

With `CCCCc1ccc(Nc2ccc(-c3noc([C@@H]4CCN(C(=N)N)C4)n3)cn2)cc1` [Compound 15i, (R)-3-(3-(6-((4-butylphenyl)amino)pyridin-3-yl)-1,2,4-oxadiazol-5-yl)pyrrolidine-1-carboximidamide hydrochloride], the IC50 was over 2000 nM. With `N=C(N)N1CC(c2nc(-c3ccc(OCCCc4ccccc4)cc3)no2)C1` [Compound 15j, 3-(3-(4-(3-phenylpropoxy)phenyl)-1,2,4-oxadiazol-5-yl)azetidine-1-carboximidamide hydrochloride] the figure was over 2000 nM; with `CCCCCCCOc1ccc(-c2noc([C@@H]3CCCNC3)n2)cc1C(F)(F)F` [Compound 21c, (R)-3-(4-(heptyloxy)-3-(trifluoromethyl)phenyl)-5-(piperidin-3-yl)-1,2,4-oxadiazole hydrochloride], over 2000 nM.

Consider `CCCCCCCCOc1ccc(-c2noc([C@@H]3CCCNC3)n2)cc1C(F)(F)F` [Compound 21d, (R)-3-(4-(octyloxy)-3-(trifluoromethyl)phenyl)-5-(piperidin-3-yl)-1,2,4-oxadiazole hydrochloride], for which the IC50 is over 2000 nM. Turning to `CCCCCCCCCCOc1ccc(-c2noc([C@@H]3CCCNC3)n2)cc1C(F)(F)F` [Compound 21f, (R)-3-(4-(decyloxy)-3-(trifluoromethyl)phenyl)-5-(piperidin-3-yl)-1,2,4-oxadiazole hydrochloride], the IC50 was over 2000 nM.

Consider `FC(F)(F)c1cc(-c2noc([C@@H]3CCCNC3)n2)ccc1OCCCc1ccccc1` [Compound 21j, (R)-3-(4-(3-phenylpropoxy)-3-(trifluoromethyl)phenyl)-5-(piperidin-3-yl)-1,2,4-oxadiazole hydrochloride], for which the IC50 was over 2000 nM. In the case of `CCCCCCCCOc1ccc(-c2noc(C3CN(C(=N)N)C3)n2)cc1C(F)(F)F` [Compound 23a, 3-(3-(4-(octyloxy)-3-(trifluoromethyl)phenyl)-1,2,4-oxadiazol-5-yl)azetidine-1-carboximidamide hydrochloride], the IC50 was at most 2000 nM. For the molecule `CCCCCCCCCOc1ccc(-c2noc(C3CN(C(=N)N)C3)n2)cc1C(F)(F)F` [Compound 23b, 3-(3-(4-(nonyloxy)-3-(trifluoromethyl)phenyl)-1,2,4-oxadiazol-5-yl)azetidine-1-carboximidamide hydrochloride], the IC50 is at most 2000 nM.

With `CCCCCCCOc1ccc(-c2noc([C@@H]3CCCN(C(=N)N)C3)n2)cc1C(F)(F)F` [Compound 23c, (R)-3-(3-(4-(heptyloxy)-3-(trifluoromethyl)phenyl)-1,2,4-oxadiazol-5-yl)piperidine-1-carboximidamide hydrochloride], the IC50 was at most 2000 nM.

As to `CCCCCCCCOc1ccc(-c2noc([C@@H]3CCCN(C(=N)N)C3)n2)cc1C(F)(F)F` [Compound 23d, (R)-3-(3-(4-(octyloxy)-3-(trifluoromethyl)phenyl)-1,2,4-oxadiazol-5-yl)piperidine-1-carboximidamide hydrochloride], the IC50 is over 2000 nM. With `CCCCCCCCCOc1ccc(-c2noc([C@@H]3CCCN(C(=N)N)C3)n2)cc1C(F)(F)F` [Compound 23e, (R)-3-(3-(4-(nonyloxy)-3-(trifluoromethyl)phenyl)-1,2,4-oxadiazol-5-yl)piperidine-1-carboximidamide hydrochloride] the figure was at most 2000 nM; with `CCCCCCCCCCOc1ccc(-c2noc([C@@H]3CCCN(C(=N)N)C3)n2)cc1C(F)(F)F` [Compound 23f, (R)-3-(3-(4-(decyloxy)-3-(trifluoromethyl)phenyl)-1,2,4-oxadiazol-5-yl)piperidine-1-carboximidamide hydrochloride], at most 2000 nM. On to `N=C(N)N1CC(c2nc(-c3ccc(OCc4ccc(C(F)(F)F)cc4)c(C(F)(F)F)c3)no2)C1` [Compound 23g, 3-(3-(3-(trifluoromethyl)-4-((4-(trifluoromethyl)benzyl)oxy)phenyl)-1,2,4-oxadiazol-5-yl)azetidine-1-carboximidamide hydrochloride], for which the IC50 was over 2000 nM.

The values are drawn from patent publication US12590083B2, “Inhibitors of spinster homolog 2 (SPNS2) for use in therapy” (University of Virginia Patent Foundation, priority 2019, dated 2026).
